Here are results for 2 compounds from ChEMBL document CHEMBL5236618, “Discovery and Optimization of Potent, Selective, and Brain-Penetrant 1-Heteroaryl-1H-Indazole LRRK2 Kinase Inhibitors for the Treatment of Parkinson's Disease” (J Med Chem, 2022).

SMILES strings stand for the structures.

Data set [1] is described as follows: Clearance in rat at 0.1 mg/kg, iv administered as cassette dose measured upto 24 hrs by LC-MS/MS method. To be noted: in vivo. The data set is classed as ADME, organism-based.
The nature of data set [2]: Unbound clearance in rat at 0.1 mg/kg, iv administered as cassette dose measured upto 24 hrs by LC-MS/MS method. The data set is classed as ADME, organism-based. Particulars: in vivo.
A short description of data set [3]: Mean residence time in rat at 0.1 mg/kg, iv administered as cassette dose measured upto 24 hrs by LC-MS/MS method. The data set is classed as ADME, organism-based. Particulars: in vivo.
Data set [4] in a line: Unbound brain-to-plasma concentration ratio in non human primates. To be noted: read-out: K(p,uu,brain). The class given is ADME, cell-free.
A short description of data set [5]: Unbound brain-to-plasma concentration ratio in rat. The class given is ADME, cell-free. To be noted: read-out: K(p,uu,brain).
A short description of data set [6]: Unbound clearance in rat at 10 mg/kg, po or 2 mg/kg, iv measured upto 24 hrs by LC-MS/MS method. The data set is classed as ADME, organism-based. Particulars: in vivo.
Data set [7] in a line: Mean residence time in rat at 10 mg/kg, po or 2 mg/kg, iv measured upto 24 hrs by LC-MS/MS method. The class given is ADME, organism-based. Particulars: in vivo.
A short description of data set [8]: Oral bioavailability in rat at 10 mg/kg measured upto 24 hrs by LC-MS/MS method. To be noted: in vivo. The class given is ADME, organism-based.
A short description of data set [9]: Unbound clearance in dog at 3 mg/kg, po or 0.5 mg/kg, iv measured upto 24 hrs by LC-MS/MS method. The class given is ADME, organism-based, Canis lupus familiaris. Particulars: in vivo.
Data set [10] in a line: Mean residence time in dog at 3 mg/kg, po or 0.5 mg/kg, iv measured upto 24 hrs by LC-MS/MS method. The class given is ADME, organism-based, Canis lupus familiaris. Particulars: in vivo.
Data set [11] is described as follows: Oral bioavailability in dog at 3 mg/kg measured upto 24 hrs by LC-MS/MS method. To be noted: in vivo. The data set is classed as ADME, organism-based, Canis lupus familiaris.
Data set [12] can be described thus: Clearance in rhesus monkey at 2 mg/kg, iv measured upto 24 hrs by LC-MS/MS method. The data set is classed as ADME, organism-based, Macaca mulatta. Particulars: in vivo.
A short description of data set [13]: Unbound clearance in rhesus monkey at 2 mg/kg, iv measured upto 24 hrs by LC-MS/MS method. The data set is classed as ADME, organism-based, Macaca mulatta. Particulars: in vivo.
Data set [14] in a line: Mean residence time in rhesus monkey at 2 mg/kg, iv measured upto 24 hrs by LC-MS/MS method. Particulars: in vivo. The class given is ADME, organism-based, Macaca mulatta.

As usually defined, the clearance is the rate of elimination divided by the concentration. For orientation: MRT means a mean duration of stay, worked out from the concentration-time curve. In [1], `C[C@@H]1CN(c2cc(-c3ncc4ccc(-c5cnn(C)c5)cn34)ccn2)C[C@H](C)O1` came in with a clearance of 98 mL/min/kg. Moreover, the CL free in data set [2] is 5850 mL/min/kg. This compound showed an MRT in data set [3] of 0.5 h.
What is called bioavailability is the share of a dose that reaches the circulation, judged against a reference dose that is usually intravenous. With `C[C@@H]1CN(c2cc(-c3n[nH]c4ccc(OC5(C)CC5)cc34)ncn2)C[C@H](C)O1` [MLi-2], the Kp uu is 0.4 in data set [4] and 0.5 in data set [5]. For the same compound, the CL free in [6] is 12700 mL/min/kg; in [9], 3200 mL/min/kg; in [13], 3400 mL/min/kg. For the same compound, the MRT was 2 h in data set [7], 7 h in data set [10] and 1.5 h in data set [14]. Further, the bioavailability in [8] came to 38%; in [11], 100%. Also, the clearance in data set [12] worked out at 16 mL/min/kg.
